We go through one molecule from patent US20170298056A1, “SMALL MOLECULE INHIBITORS OF HIV-1 ENTRY AND METHODS OF USE THEREOF” (Dana-Farber Cancer Institute, Inc., priority 2014, published 2017).

Usually IC50 stands for the concentration needed to halve the response being measured.

Common to all, as to format: cell-based
The test system of assay [1] is F-luc expression in H-Fluc4 cells. Put plainly: Specificity control assay (induced firefly luciferase, H-Fluc4 cells). The method, then: (§1) H-JRFL#1336 (effector) and H-Fluc4 (control) cells were grown in DMEM containing 10% FBS, 100 μg/ml streptomycin, 100 units/ml penicillin, 200 μg/ml G418, 1 μg/ml puromycin and 2 μg/ml doxycycline. H-JRFL#13 cells carry an HIV-1JR-FL env gene that is induced by growing the cells in the absence of doxycycline (Tet-Off expression system). H-Fluc4 cells, which carry a firefly luciferase gene that is induced in the absence of doxycycline, were used as specificity controls. Both cell lines were derived from HeLa cells and constitutively express the tetracycline-regulated transactivator (Tet-Off expression system). […]
(§2) H-JRFL#13 or H-FLuc4 cells were washed thrice, detached with StemPro Accutase, centrifuged at 200×g for 6 minutes at 10° C. and seeded in DMEM containing 10% tetracycline-approved FBS, 100 μg/ml streptomycin, 100 units/ml penicillin, 100 μg/ml G418, 1 μg/ml puromycin and without Phenol Red. […] Firefly luciferase activity was measured using an EnVision Multilabel Plate Reader (PerkinElmer, Boston, Mass.). […]
(§3) To identify new molecules that potentially affect HIV-1 entry, a cell-cell fusion assay that mimics the entry of HIV-1 into cells was established (FIG. 1a). The assay uses a firefly luciferase (F-luc) readout to measure the fusion of HeLa effector cells that express the Envs from a primary HIV-1 strain and target cells coexpressing the CD4 and CCR5 receptors. […]

Another assay has as its system HIV-1KB9. In words: Viral infection assay, dual-tropic isolate. Particulars: dual-tropic HIV-1KB9. The method, then:
Production of recombinant HIV-1 expressing luciferase. 293T cells were cotransfected with an Env expression plasmid, a firefly luciferase-expressing lentiviral vector (pHIVcc2.luc) and an HIV-1-based packaging plasmid (psPAX2, cat #11348, NIH AIDS Research and Reference Reagent Program) at a ratio of 1:6:3 using Effectene (Qiagen, Germantown, Md.). After 48 hours, the supernatant was collected, buffered with 50 mM Hepes pH 7.4 (final concentration) and centrifuged for 5 minutes at 750×g and 4° C. The virus-containing supernatant was used directly or frozen at −80° C.
Viral infection assay. Each test compound was serially diluted in DMSO in a 96-well B&W isoplate (PerkinElmer, Boston, Mass.) using an HP D300 Digital Dispenser, to a final volume of 450 nl. DMSO was used as a control. Viruses pseudotyped with a specific Env were added to each well and incubated briefly at room temperature. […] The activity of the firefly luciferase, which was used as a reporter protein in the system, was measured with a Centro LB 960 luminometer (Berthold Technologies, Oak Ridge, Tenn.). One hundred microliters of assay buffer (15 mM MgSO4, 15 mM KH2PO4/K2HPO4 pH 7.8, 1 mM ATP and 1 mM DTT) was injected to each well, followed by a 50 μl injection of 1 mM Dluciferin potassium salt (BD Pharmingen, San Jose, Calif.); luminescence was measured for 2 sec. […]

In assay [2] the test system is cell-cell fusion mediated by HIV-1JR-FL and HIV-1ADS Envs. Put plainly: Cell-cell fusion assay. The method, then:
as §1, §2, §3

Molecule `O=C(N/N=C/c1ccc(O)cc1)Nc1cccc2nsnc12` [Compound 18A] registered an IC50 in assay [1] of 15.1 ± 1.1 µM. For the same molecule, the inhibition of infection result with HIV-1KB9 is “relatively resistant to inhibition”. In addition, in assay [2], the cell-cell fusion entry is recorded as “specifically inhibited cell-cell fusion”.
